Results on 17 compounds are retold here after PubChem BioAssay (NCI).

Each structure is given as a SMILES string. Where “and” joins values, the source holds several entries; their conditions need not be identical. Equal values may be shown once.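 Cells were grown in 96-well plates and exposed to each compound for 48 hours at five concentrations; endpoints were interpolated linearly between bracketing concentrations, or set to the highest concentration if not reached. The concentration for 50% growth inhibition is given as GI50. TGI marks complete inhibition of growth.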

The GI50 is the concentration that inhibits growth by half. As a reminder, the TGI is the concentration giving total growth inhibition. The low end stands for more potent growth arrest, the high end for less potent growth arrest.

What all share (assay): DTP human tumour cell line panel, 48 h
Test [1] deals with HL-60(TB) leukemia.
In test [2] the test system is HCT-15 colon.
In test [3] the test system is UO-31 renal.
In test [4] the test system is NCI/ADR-RES ovarian.
Test [5] concerns HOP-92 NSCLC.
Test [6] relates to T-47D breast.
Test [7] has as its system SW-620 colon.
The subject of test [8] is KM12 colon.
Test [9] concerns OVCAR-5 ovarian.
Test [10] concerns IGROV1 ovarian.

With `Oc1cc2ccccc2c(-c2c(O)c(O)cc3ccccc23)c1O`, the GI50 is 1.59 µM in test [1]; 0.323 µM in test [2]; 0.512 µM in test [3]; 1.83 µM in [4]; 1.87 µM in test [5]; 0.319 µM in test [6]. In addition, the GI50 is 3.49 µM in test [7], 2.81 µM in [8], 4.54 µM in test [9] and 0.273 µM in test [10]. In addition, the concentration for total growth inhibition (TGI) in test [1] was above 20.6 µM; in test [2], 14.8 µM; in test [3] it was 6.41 µM; in test [4], 12.4 µM; in test [5] it was 16.3 µM; in test [6], 14.5 µM. Moreover, the TGI was determined as 26.9 µM in [7], 17.4 µM in test [8], 24.1 µM in test [9] and 3.4 µM in [10].

On to `N#C[Se]CCCNS(=O)(=O)C1CC2C=CC1C2` (configuration not stated), for which the GI50 in test [1] was 0.326 µM; in [2], 1.47 µM; in [3], 0.338 µM; in [4], 0.57 µM; in [5] it was 1.17 µM; in test [6], 2.55 µM. Besides, the GI50 in [7] was 1.79 µM; in test [8], 1.4 µM; in test [9] it was 0.828 µM; in test [10], 0.383 µM. The TGI stood at 1.31 µM in [1]; 3.65 µM in test [2]; 1.43 µM in test [3]; 5.12 µM in test [4]; 2.7 µM in [5]; 8.28 µM in [6]. The total growth inhibition concentration (TGI) in [7] came out at 5.56 µM; in [8], 6.43 µM; in test [9] it was 5.13 µM; in test [10], 1.65 µM.

For the compound `O=C1c2ccccc2-c2c1c1ccccc1c(=O)n2CCCNCCCCNCCCN1C(=O)c2ccccc2C2C(=O)c3ccccc3C21` (configuration not stated), the GI50 in test [1] is 0.203 µM; in test [2], 0.229 µM; in test [3] it was 0.691 µM; in test [4], 0.859 µM; in test [5], 0.00829 µM; in test [6] it was 0.643 µM. Moreover, the GI50 in test [7] was 0.126 µM; in test [8], 0.27 µM; in test [9] it was 0.57 µM; in test [10] it was 0.988 µM. Moreover, the TGI in test [1] amounted to 1.17 µM; in test [2], 0.853 µM; in [3] it was 1.85 µM; in test [4] it was 2.63 µM; in test [5], 0.0428 µM; in test [6], 1.77 µM. In addition, the TGI in [7] stood at 1.21 µM; in [8], 1.41 µM; in test [9], 1.19 µM; in test [10], 10.7 µM.

Take `Cc1ccc(Cl)c(Nc2ccccc2C(=O)O)c1Cl`: the GI50 in test [1] is 22.7 µM; in test [2], 22.7 µM; in test [3], 19.3 µM; in test [4], 26.3 µM; in [5], 16.2 µM; in test [6], 33.4 µM. The GI50 was 34.4 µM in test [7], 29.3 µM in [8], 31.9 µM in test [9] and 32.3 µM in test [10]. Further, the TGI in [1] is 51.4 µM; in test [2], 54.2 µM; in test [3] it was 45.5 µM; in test [4] it was 80.9 µM; in test [5] it was 50 µM; in [6] it was above 100 µM. In addition, the TGI was above 100 µM in [7], 77.1 µM in [8], 98.9 µM in test [9] and 93.4 µM in [10].

Take `CC(=O)OC12COC1CC(O)C1(C)C(=O)C(O)C3=C(C)C(O)CC(O)(C(OC(=O)c4ccccc4)C21)C3(C)C` (configuration not stated): the TGI in [1] is 24.3 µM; in [2] it was above 100 µM; in test [3], above 100 µM; in [4], above 100 µM; in test [5] it was above 100 µM; in test [6], above 100 µM. Moreover, the TGI in [7] was above 100 µM; in test [8] it was above 100 µM; in test [9], above 42.2 µM; in test [10], above 100 µM. Also, the GI50 in test [7] was 2.48 µM; in [8], 1.22 µM.

On to `O=C(O)c1ccc(C(=O)O)c(C(=O)Nc2ccc3c(c2)C(=O)c2ccccc2-3)c1`, for which the TGI in [1], in [2], in [3], in test [4], in [5] and in [6] was above 100 µM each time. The TGI in test [7], in test [8], in test [9] and in test [10] was above 100 µM throughout.

Turning to `O=C1c2cc([N+](=O)[O-])ccc2-c2ccc3c4ccc5c6c(ccc(c7ccc1c2c73)c64)C(=O)c1cc([N+](=O)[O-])ccc1-5`, the TGI in test [1], in test [2], in test [3], in test [4], in test [5] and in [6] was above 100 µM in each case. For the same compound, the concentration for total growth inhibition (TGI) in test [7], in test [8], in [9] and in [10] was above 100 µM each time.

With `CCCCCCCCn1ccc2cc(NC(=O)Cn3cc(CN4CCCCC4)nn3)ccc21`, the GI50 in [1] is 1.98 µM; in [2], 1.96 µM; in test [3], 1.34 µM; in test [4] it was 2.92 µM; in [5] it was 0.601 µM; in test [6] it was 1.99 µM. In addition, the GI50 was 1.84 µM in [7], 2.23 µM in test [8], 1.78 µM in test [9] and 1.88 µM in test [10]. For the same compound, the TGI in [1] came to 4.15 µM; in [2] it was 4.11 µM; in test [3] it was 2.62 µM; in test [4] it was 10.2 µM; in test [5], 2.21 µM; in [6], 4.31 µM. Also, the TGI was 3.59 µM in test [7], 5 µM in test [8], 3.71 µM in [9] and 3.97 µM in test [10].

As for `COc1cc2c(cc1OC)C1Cc3cc(OC)c(OC)cc3C(C2)N1C`, the TGI in [1] was above 75 µM; in test [2], above 100 µM; in test [3] it was above 100 µM; in test [4], above 75 µM; in [5] it was above 75 µM; in test [6], above 75 µM. Moreover, the TGI in test [7] was above 100 µM; in test [8], above 100 µM; in test [9], above 100 µM; in test [10] it was above 75 µM. Further, the GI50 in test [3] is 19.7 µM and 40.5 µM.

Consider `CC(=O)Oc1ccc(/C(=C(\C)c2ccc(Cl)cc2)c2ccc(OCCN3CCCCC3)cc2)cc1`, for which the GI50 in test [1] is 2.09 µM; in test [2], 1.61 µM; in [3], 1.59 µM; in test [4] it was 1.97 µM; in [5], 1.64 µM; in test [6] it was 1.09 µM. In addition, the GI50 in test [7] is 1.85 µM; in test [8], 1.77 µM; in [9], 2.72 µM; in [10], 2.35 µM. Further, the TGI is 4.35 µM in [1]; 3.19 µM in test [2]; 3.09 µM in test [3]; 5.44 µM in test [4]; 4.42 µM in test [5]; 4.37 µM in [6]. Moreover, the TGI in test [7] was determined as 3.93 µM; in test [8], 3.97 µM; in [9], 8.35 µM; in test [10], 5.14 µM.

With `CCCCCCCCCCCCOC1C(CNC(=O)C2OC3OC(C)(C)OC3C2NC(=O)Nc2ccc(CC(=O)NC(Cc3ccccc3)C(=O)O)cc2)OC2OC(C)(C)OC21` (configuration not stated), the GI50 in test [1] was above 25 µM; in test [2] it was above 25 µM; in [3], above 25 µM; in [4], above 25 µM; in [5], above 25 µM; in test [6] it was 16.3 µM. In addition, the GI50 in [7] is above 25 µM; in test [8], above 25 µM; in test [9], above 25 µM; in [10], 22.5 µM. Also, the TGI in [1], in test [2], in test [3], in test [4], in test [5] and in test [6] was above 25 µM in each case. The TGI in test [7], in test [8], in test [9] and in test [10] was above 25 µM in each case.

In the case of `NC(N)=N/N=C/c1ccc(-c2ccc(-c3cc(Cl)cc(Cl)c3)s2)cc1`, the GI50 is 1.68 µM in test [1]; 1.25 µM in [2]; 1.5 µM in test [3]; 2 µM in test [4]; 1.41 µM in [5]; 2.02 µM in test [6]. Further, the GI50 was 1.66 µM in [7], 1.87 µM in test [8], 1.59 µM in test [9] and 1.68 µM in test [10]. Also, the TGI came to 3.59 µM in test [1]; 2.76 µM in test [2]; 2.97 µM in test [3]; 4.33 µM in test [4]; 3.13 µM in [5]; 4.54 µM in test [6]. For the same compound, the TGI came to 3.34 µM in test [7], 3.56 µM in [8], 3.02 µM in [9] and 3.36 µM in test [10].

As for `CN(Cc1cc(Cl)cc(Cl)c1O)Cc1c(O)ccc2ccccc12`, the TGI in [1] is 57.4 µM; in test [2], 38.9 µM; in [3], 34.7 µM; in test [4], 42.5 µM; in test [5], 36.5 µM; in test [6] it was 43 µM. The TGI in [7] is above 100 µM; in [8] it was 42.8 µM; in test [9], 52.5 µM; in test [10], 33.9 µM.

Consider `CC(=O)N1N=C2/C(=C/c3ccc(Cl)cc3)CC(C)CC2C1c1ccc(Cl)cc1` (configuration not stated), for which the GI50 in test [1] was 13.5 µM; in [2], 31.9 µM; in test [3], 15.1 µM; in test [4], 21.7 µM; in [5], 19.5 µM; in [6] it was 12.4 µM. Also, the GI50 in [7] is 19.3 µM; in test [8], 21.4 µM; in test [9], 43.4 µM; in [10], 22.5 µM. Besides, the TGI in test [1] is 59.5 µM; in test [2], above 100 µM; in [3], 30.5 µM; in test [4], above 100 µM; in test [5] it was 54 µM; in [6] it was 61.8 µM. The concentration for total growth inhibition (TGI) is 57.7 µM in test [7], 67.1 µM in test [8], above 100 µM in test [9] and 67.2 µM in [10].

`CC(C)(C)CC(N)=O`: the TGI in test [1], in test [2], in [3], in [4], in [5] and in test [6] was above 100 µM in each case. Besides, the TGI in test [7], in [8], in [9] and in [10] was above 100 µM throughout.

With `Cc1ccc(NC(=O)c2sc3nc4c(cc3c2N)C(=O)CCC4)cc1C`, the GI50 in test [1] is 0.36 µM; in test [2], 0.556 µM; in test [3], 1.81 µM; in [4], 0.784 µM; in test [6], 0.533 µM; in test [7] it was 0.417 µM. Further, the GI50 is 0.486 µM in test [8], 3.16 µM in [9] and 2.2 µM in test [10]. Further, the TGI in test [1] is 1.72 µM; in [2] it was above 100 µM; in test [3], above 100 µM; in [4], above 100 µM; in [5] it was above 100 µM; in test [6] it was above 73.2 µM. For the same compound, the TGI in [7], in test [8], in test [9] and in test [10] was above 100 µM in each case.

As for `COc1ccc(/C=C2\C=C(c3ccccc3)N(CCc3ccccc3)C2=O)cc1OC`, the GI50 in test [1] is 11.7 µM; in test [2] it was 11.1 µM; in test [3], 4.35 µM; in [4], 9.03 µM; in [5], 2.54 µM; in test [6] it was 3.2 µM. Also, the GI50 in test [7] is 13.6 µM; in test [8], 22.2 µM; in [9], 6.37 µM; in test [10], 4.93 µM. Further, the TGI in [1] is 68.6 µM; in test [2] it was above 100 µM; in test [3], 20.6 µM; in test [4] it was 68.5 µM; in [5], 8.17 µM; in test [6], 28.1 µM. Further, the TGI in test [7] is above 100 µM; in test [8] it was above 100 µM; in test [9] it was 73.1 µM; in test [10], 52.1 µM.
